Consider 20 molecules from patent US8975417B2, “Pyrazolopyrrolidine derivatives and their use in the treatment of disease” (Novartis AG, priority 2013, dated 2015).

The term IC50 denotes the concentration that inhibits the measured activity by half.

One assay has as its target His-Brd4(44-477) (Homo sapiens (Human), UniProt O60885). Briefly: TR-FRET in-vitro binding assay for BRD4. The note with it: biochemical. The method in brief: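 His-tagged BRD2(60-472), BRD3(20-477) or BRD4(44-477), 45 nM in dispensing solution, with 60 nM tetra-acetylated histone H4 peptide (AcK5/8/12/16) in dispensing solution; HEPES pH 7.5, 50 mM NaCl, 0.1% BSA, 30 °C, 35 min. Eu-anti-His6 antibody plus streptavidin-APC added for TR-FRET read-out; 8-point compound dilutions.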
A general note: TR-FRET usually uses a lanthanide donor and a delayed reading to cut background.

Assay [1] concerns the target His-CREBBP (1081-1197) bromodomain (Homo sapiens (Human), UniProt Q92793). Briefly: AlphaScreen in-vitro binding assay for CREBBP. The note with it: biochemical. The essentials: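 Ni-chelate acceptor and streptavidin donor beads (45 µg/mL each, in 50 mM HEPES pH 7.5, 150 mM NaCl, 0.02% BSA) were then added for 60 min at room temperature. IC50 came from 8-point non-linear regression.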
In general terms: Bead proximity is the source of the signal in Alpha formats.

Another assay has as its system MV-4-11 cells. Briefly: Cell growth inhibition assay (CellTiter-Glo), MV-4-11. The format is cell-based. As to conditions: Homo sapiens, MV4-11, read-out: MV-4-11 TGI. The essentials: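 Compounds tested as 3-fold dilution series starting at 10 μM (DMSO 0.1% final); viability read by cellular ATP (CTG luminescence) at 37° C. Signal corrected for no-cell background and a day-0 plate, scaled −100% to 100%; four-parameter fitting gives IC50 and TGI.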

Sequence of His-CREBBP (1081-1197) bromodomain (Q92793 1081-1197): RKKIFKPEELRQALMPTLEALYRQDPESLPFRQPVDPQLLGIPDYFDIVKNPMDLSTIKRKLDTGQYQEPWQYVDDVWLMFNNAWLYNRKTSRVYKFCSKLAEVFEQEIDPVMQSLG

On to `Cc1cc(N2C(=O)c3c(c(C4CC4)nn3-c3ccnn3C)C2c2ccc(Cl)cc2)cn2c(C)nnc12` (stereo not drawn) [Example 117, 4-(4-chlorophenyl)-3-cyclopropyl-5-(3,8-dimethyl-[1,2,4]triazolo[4,3-a]pyridin-6-yl)-1-(1-methyl-1H-pyrazol-5-yl)-4,5-dihydropyrrolo[3,4-c]pyrazol-6(1H)-one], for which the IC50 at His-Brd4(44-477) was 0.039 µM; in assay [1], more than 37 µM. Also, in the assay with MV-4-11 cells, the IC (total growth inhibition) came out at 0.0391 µM.
As for `Cc1nn(-c2ccnn2C)c2c1[C@@H](c1ccc(Cl)cc1)N(c1cc(C)c(=O)n(C)c1)C2=O` [Example 120, (R)-4-(4-chlorophenyl)-5-(1,5-dimethyl-6-oxo-1,6-dihydropyridin-3-yl)-3-methyl-1-(1-methyl-1H-pyrazol-5-yl)-4,5-dihydropyrrolo[3,4-c]pyrazol-6(1H)-one], the values for the IC50 (on His-Brd4(44-477); in assay [1]) were 0.055 µM and 4.3 µM, respectively. For the same molecule, the IC (total growth inhibition) with MV-4-11 cells amounted to 0.106 µM.
`Cc1nn(-c2ccnn2C)c2c1[C@H](c1ccc(Cl)cc1)N(c1cc(C)c(=O)n(C)c1)C2=O` [Example 121, (S)-4-(4-chlorophenyl)-5-(1,5-dimethyl-6-oxo-1,6-dihydropyridin-3-yl)-3-methyl-1-(1-methyl-1H-pyrazol-5-yl)-4,5-dihydropyrrolo[3,4-c]pyrazol-6(1H)-one]: the results for the IC50 (on His-Brd4(44-477); in assay [1]) were 4 µM and more than 37 µM, respectively. For the same molecule, in the assay with MV-4-11 cells, the IC (total growth inhibition) worked out at 1.23 µM.
Consider `Cc1nn(C2CC2)c2c1[C@@H](c1ccc(Cl)cc1)N(c1cc(C)c3nnc(C)n3n1)C2=O` [Example 122, (R)-4-(4-chlorophenyl)-1-cyclopropyl-5-(3,8-dimethyl-[1,2,4]triazolo[4,3-b]-pyridazin-6-yl)-3-methyl-4,5-dihydropyrrolo[3,4-c]pyrazol-6(1H)-one], for which the IC50 was less than 0.011 µM on His-Brd4(44-477) and more than 37 µM in assay [1]. Further, the IC (total growth inhibition) in the assay with MV-4-11 cells worked out at 0.00842 µM.
As for `Cc1nn(-c2ccnn2C)c2c1[C@H](c1ccc(Cl)cc1)N(c1cc(C)c3nnc(C)n3c1)C2=O` [Example 124, (S)-4-(4-chlorophenyl)-5-(3,8-dimethyl-[1,2,4]triazolo[4,3-a]pyridin-6-yl)-3-methyl-1-(1-methyl-1H-pyrazol-5-yl)-4,5-dihydropyrrolo[3,4-c]pyrazol-6(1H)-one], the IC50 is 25 µM at His-Brd4(44-477) and more than 37 µM in assay [1]. For the same molecule, in the assay on MV-4-11 cells, the IC (total growth inhibition) came out at 0.73 µM.
For `Cc1nn(-c2ccnn2C)c2c1[C@@H](c1ccc(Cl)cc1)N(c1cc(C)c3nnc(C)n3c1)C2=O` [Example 125, (R)-4-(4-chlorophenyl)-5-(3,8-dimethyl-[1,2,4]triazolo[4,3-a]pyridin-6-yl)-3-methyl-1-(1-methyl-1H-pyrazol-5-yl)-4,5-dihydropyrrolo[3,4-c]pyrazol-6(1H)-one], the IC50 at His-Brd4(44-477) was determined as 0.025 µM; in assay [1], 21 µM. The IC (total growth inhibition) with MV-4-11 cells came to 0.0399 µM.
On the same counts, the results for `CC(=O)Nc1cc(N2C(=O)c3c(c(C)nn3C3CC3)C2c2ccc(Cl)cc2)nn2c(C)nnc12` (stereo not drawn) [Example 126, N-(6-(4-(4-chlorophenyl)-1-cyclopropyl-3-methyl-6-oxopyrrolo[3,4-c]pyrazol-5-(1H,4H,6H)-yl)-3-methyl-[1,2,4]triazolo[4,3-b]pyridazin-8-yl)acetamide] are 1.1 µM, more than 37 µM and 0.682 µM.
Take `COc1ncccc1-n1nc(C)c2c1C(=O)N(c1cc(C)c(=O)n(C)c1)[C@H]2c1ccc(Cl)cc1` [Example 127, (S)-4-(4-chlorophenyl)-5-(1,5-dimethyl-6-oxo-1,6-dihydropyridin-3-yl)-1-(2-methoxypyridin-3-yl)-3-methyl-4,5-dihydropyrrolo[3,4-c]pyrazol-6(1H)-one]: the values for the IC50 (on His-Brd4(44-477); in assay [1]) were 5.7 µM and more than 37 µM, respectively. Besides, the IC (total growth inhibition) with MV-4-11 cells is 4.49 µM.
On the same counts, the results for `COc1ncccc1-n1nc(C)c2c1C(=O)N(c1cc(C)c(=O)n(C)c1)[C@@H]2c1ccc(Cl)cc1` [Example 128, (R)-4-(4-chlorophenyl)-5-(1,5-dimethyl-6-oxo-1,6-dihydropyridin-3-yl)-1-(2-methoxypyridin-3-yl)-3-methyl-4,5-dihydropyrrolo[3,4-c]pyrazol-6(1H)-one] are 0.036 µM, 3.7 µM and 0.0734 µM.
For the molecule `COCc1nn(C2CC2)c2c1C(c1ccc(Cl)cc1)N(c1cc(C)c3nnc(C)n3c1)C2=O` (stereo not drawn) [Example 130, 4-(4-chlorophenyl)-1-cyclopropyl-5-(3,8-dimethyl-[1,2,4]triazolo[4,3-a]pyridin-6-yl)-3-(methoxymethyl)-4,5-dihydropyrrolo[3,4-c]pyrazol-6(1H)-one], the IC50 on His-Brd4(44-477) is 0.042 µM; in assay [1], 19 µM. The IC (total growth inhibition) in the assay on MV-4-11 cells is 0.0267 µM.
On the same counts, the results for `Cc1cc(N2C(=O)c3c(c(CO)nn3C3CC3)C2c2ccc(Cl)cc2)cn2c(C)nnc12` (stereo not drawn) [Example 131, 4-(4-chlorophenyl)-1-cyclopropyl-5-(3,8-dimethyl-[1,2,4]triazolo[4,3-a]pyridin-6-yl)-3-(hydroxymethyl)-4,5-dihydropyrrolo[3,4-c]pyrazol-6(1H)-one] are 0.036 µM, 30 µM and 0.0405 µM.
`Cc1nn(C2COC2)c2c1C(c1ccc(Cl)cc1)N(c1cc(C)c(=O)n(C)c1)C2=O` (stereo not drawn) [Example 135, 4-(4-chlorophenyl)-5-(1,5-dimethyl-6-oxo-1,6-dihydropyridin-3-yl)-3-methyl-1-(oxetan-3-yl)-4,5-dihydropyrrolo[3,4-c]pyrazol-6(1H)-one]: the results for the IC50 (at His-Brd4(44-477); in assay [1]) were 0.14 µM and more than 37 µM, respectively. The IC (total growth inhibition) in the assay on MV-4-11 cells amounted to 0.126 µM.
For the molecule `Cc1cc(N2C(=O)c3nn(C4COC4)c(C)c3C2c2ccc(Cl)cc2)cn2c(C)nnc12` (stereo not drawn) [Example 136, 4-(4-chlorophenyl)-5-(3,8-dimethyl-[1,2,4]triazolo[4,3-a]pyridin-6-yl)-3-methyl-2-(oxetan-3-yl)-4,5-dihydropyrrolo[3,4-c]pyrazol-6(2H)-one], the IC50 at His-Brd4(44-477) stood at 0.11 µM; in assay [1], 4.3 µM. Moreover, the IC (total growth inhibition) in the assay with MV-4-11 cells amounted to 0.041 µM.
On the same counts, the results for `Cc1nn(C2COC2)c2c1C(c1ccc(Cl)cc1)N(c1cc(C)c3nnc(C)n3c1)C2=O` (stereo not drawn) [Example 137, 4-(4-chlorophenyl)-5-(3,8-dimethyl-[1,2,4]triazolo[4,3-a]pyridin-6-yl)-3-methyl-1-(oxetan-3-yl)-4,5-dihydropyrrolo[3,4-c]pyrazol-6(1H)-one] are 0.08 µM, more than 37 µM and 0.0421 µM.
On the same counts, the results for `Cc1nn(C2CN(C)C2)c2c1C(c1ccc(Cl)cc1)N(c1cc(C)c(=O)n(C)c1)C2=O` (stereo not drawn) [Example 140, 4-(4-chlorophenyl)-5-(1,5-dimethyl-6-oxo-1,6-dihydropyridin-3-yl)-3-methyl-1-(1-methylazetidin-3-yl)-4,5-dihydropyrrolo[3,4-c]pyrazol-6(1H)-one] are 0.32 µM, 15 µM and 0.154 µM.
`Cc1cc(N2C(=O)c3nn(C(=O)N(C)C)c(C)c3C2c2ccc(Cl)cc2)cn(C)c1=O` (stereo not drawn) [Example 141, 4-(4-chlorophenyl)-5-(1,5-dimethyl-6-oxo-1,6-dihydropyridin-3-yl)-N,N,3-trimethyl-6-oxo-5,6-dihydropyrrolo[3,4-c]pyrazole-2(4H)-carboxamide]: the IC50 on His-Brd4(44-477) is 0.17 µM; in assay [1], 1.5 µM. The IC (total growth inhibition) with MV-4-11 cells stood at 0.222 µM.
On to `Cc1nn(C(=O)N(C)C)c2c1C(c1ccc(Cl)cc1)N(c1cc(C)c(=O)n(C)c1)C2=O` (stereo not drawn) [Example 142, 4-(4-chlorophenyl)-5-(1,5-dimethyl-6-oxo-1,6-dihydropyridin-3-yl)-N,N,3-trimethyl-6-oxo-5,6-dihydropyrrolo[3,4-c]pyrazole-1(4H)-carboxamide], for which the concentration for half-maximal inhibition (IC50) on His-Brd4(44-477) came to 0.19 µM; in assay [1], 4.6 µM. The IC (total growth inhibition) in the assay with MV-4-11 cells turned out to be 0.121 µM.
On the same counts, the results for `CNC(=O)n1nc(C)c2c1C(=O)N(c1cc(C)c(=O)n(C)c1)C2c1ccc(Cl)cc1` (stereo not drawn) [Example 143, 4-(4-chlorophenyl)-5-(1,5-dimethyl-6-oxo-1,6-dihydropyridin-3-yl)-N,3-dimethyl-6-oxo-5,6-dihydropyrrolo[3,4-c]pyrazole-1(4H)-carboxamide] are 0.3 µM, more than 37 µM and 0.116 µM.
On the same counts, the results for `CNC(=O)n1nc(C)c2c1C(=O)N(c1cc(C)c3nnc(C)n3c1)C2c1ccc(Cl)cc1` (stereo not drawn) [Example 145, 4-(4-chlorophenyl)-5-(3,8-dimethyl-[1,2,4]triazolo[4,3-a]pyridin-6-yl)-N,3-dimethyl-6-oxo-5,6-dihydropyrrolo[3,4-c]pyrazole-1(4H)-carboxamide] are 0.14 µM, more than 37 µM and 0.093 µM.
In the case of `CCc1c2c(nn1C(=O)N(C)C)C(=O)N(c1cc(C)c(=O)n(C)c1)C2c1ccc(Cl)cc1` (stereo not drawn) [Example 148, 4-(4-chlorophenyl)-5-(1,5-dimethyl-6-oxo-1,6-dihydropyridin-3-yl)-3-ethyl-N,N-dimethyl-6-oxo-5,6-dihydropyrrolo[3,4-c]pyrazole-2(4H)-carboxamide], the IC50 at His-Brd4(44-477) worked out at 0.27 µM; in assay [1], 4.1 µM. The IC (total growth inhibition) in the assay on MV-4-11 cells came to 0.114 µM.
